Test results published in patent US10400004B2, “Chemical synthesis method of phillyrin” (priority 2014, dated 2019).
Like-named read-outs stand apart in the source and are kept apart here. Marks after values point to notes of the source that are not given here.

How the values were obtained:
influenza virus [1] = type: in vivo, Kunming mice
Influenza virus [2] = assay: Impact of the drugs on virus-induced cytopathy (MTT, ER %); type: cell-based
[3] = system: respiratory syncytical virus (RSV); assay: as above; type: cell-based
Parainfluenza virus [4] = assay: as above; type: cell-based
Adenovirus (AdV) = assay: as above; type: cell-based
[5] = system: Coxsackie virus A16 (CoxA16); assay: as above; type: cell-based
parainfluenza virus [6] = type: in vivo, Kunming mice
enterovirus EV71 = assay: Impact of the drugs on virus-induced cytopathy (MTT, ER %); type: cell-based
Vero cells = assay: Drug cytotoxicity assay (MTT) on Vero cells; type: cell-based, African green monkey; settings: 72 h, Probit regression
Procedure: Vero cells were subcultured for 1-2 days to form a film. […] The digestion was drained after needle-like holes occurred on the cell surface, then cells were dispersed with a few milliliters of medium, counted, then diluted to about 5×10^7 cells/L with DMEM containing 10% fetal bovine serum and transferred to a 96-pore culture plate until monolayer formed.
Cytotoxicity test: the drugs were diluted according to the concentrations shown in Table 1-1 for cytotoxicity assays.
Different concentrations of drugs diluted with the above maintenance medium (DMEM containing 2% fetal calf serum) were added dropwise to Vero monolayer cells with 0.2 ml per pore, and for each concentration, the drugs were added in sextuplicate in 6 pores respectively. In addition, 6 pores were set up as normal control (without drugs) while another 6 pores as blank control (medium only). Cells were grown in a 37° C. incubator under 5% CO2. CPE was visualized under the invert microscope and recorded daily. After 72 h, 20 μL MTT solution (5 mg·mL^−1) was added into each pore and incubated for 4 h. The culture medium in each pore was sucked and discarded, 100 μL DMSO was added to each pore. Then the culture was shaken for 5 min, measured OD value at 492 nm to calculate the cell survival ratio. The cell survival ratio was analyzed using a Probit regression model in SPSS 18.0 statistical software, and the maximal nontoxic concentration (TC0) and median toxic concentration (TC50) of drugs against Vero cells were calculated.

[7] = system: Coxsackie virus B3 (CVB3); assay: Impact of the drugs on virus-induced cytopathy (MTT, ER %); type: cell-based
[8] = system: Herpes simplex virus type I (HSV-1); assay: as above; type: cell-based
[9] = Solubility of the synthesized white solid; type: physicochemical; settings: white solid of Embodiment 1
[10] = mice, influenza virus 15LD50 nasally, 19.5 mg/kg/d intragastric, 5 days
[11] = mice, parainfluenza virus 15LD50 nasally, 19.5 mg/kg/d intragastric, 5 days
[12] = summary of Table 1-3, Vero cells
[13] = mice, parainfluenza virus 15LD50 nasally, 3.25 mg/kg/d (low-dose) intragastric, 5 days

In the case of `CCOC(=O)C1=C[C@@H](OC(CC)CC)[C@H](NC(C)=O)[C@@H](N)C1` [Oseltamivir phosphate, reference compound], the “Lung index (X ± S)” value (influenza virus [1]; [10]) is reported as 1.191 ± 0.062, the “Lung index Inhibitory rate (%)” value (influenza virus [1]; [10]) is reported as 20.71% and the “antiviral efficiency (ER %)” value (Influenza virus [2]; Vero cells, 100 TCID50, 72 h, MTT, drug at maximal non-cytotoxic concentration or so (Table 1-2 last row: phillyrin 0.01, ribavirin 0.70, oseltamivir phosphate 0.30 g/L)) is reported as 81.76** %. The “antiviral efficiency (ER %)” value [3] was 37.60%, the “antiviral efficiency (ER %)” value (Parainfluenza virus [4]) was 94.52** % and the “antiviral efficiency (ER %)” value (Adenovirus (AdV)) was 10.31%. The “antiviral efficiency (ER %)” value [5] was 2.95%, the “Lung index (X ± S)” value (parainfluenza virus [6]; [11]) was 1.256 ± 0.057 and the “Lung index Inhibitory rate (%)” value (parainfluenza virus [6]; [11]) was 21.56%. For the same molecule, the “antiviral efficiency (ER %)” value (enterovirus EV71) was 51.86%, the “Maximal non-cytotoxic concentration (TC0)” value (Vero cells) was 0.28 g/L and the “Median toxic concentration (TC50)” value (Vero cells) was 832 µg/mL. For the same molecule, the “antiviral efficiency (ER %)” value [7] was 1.64% and the “antiviral efficiency (ER %)” value [8] was 66.56** %.

For phillyrin, the “effect on mice viral pneumonia (in words)” value (influenza virus [1]; influenza virus, 3.25 to 13.0 mg/kg/d) was “significant inhibitory effect”, the “hemagglutination titers (in words)” value (influenza virus [1]; influenza virus, 3.25 to 13.0 mg/kg/d, compared to virus control group) was “greatly reduce” and the “Lung index (X ± S)” value (influenza virus [1]; mouse, in vivo, 3.25 mg/kg/day) was 1.339 ± 0.045. The “Lung index Inhibitory rate (%)” value (influenza virus [1]; mouse, in vivo, 3.25 mg/kg/day) was 10.82%, the “Lung index (X ± S)” value (influenza virus [1]; mouse, in vivo, 13 mg/kg/day) was 1.290 ± 0.041 and the “Lung index Inhibitory rate (%)” value (influenza virus [1]; mouse, in vivo, 13 mg/kg/day) was 14.51%. The “antiviral efficiency (ER %)” value (Influenza virus [2]) was 75.38** %, the “inhibitory effect (in words)” value (Influenza virus [2]; [12]) was “significant” and the “antiviral efficiency (ER %)” value [3] was 80.40** %. The “inhibitory effect (in words)” value [3, 12] was “significant”, the “antiviral efficiency (ER %)” value (Parainfluenza virus [4]) was 84.96** % and the “inhibitory effect (in words)” value (Parainfluenza virus [4]; [12]) was “significant”. The “solubility (in words)” value [9] was “soluble in chloroform and methanol”, the “antiviral efficiency (ER %)” value (Adenovirus (AdV)) was 75.14** % and the “inhibitory effect (in words)” value (Adenovirus (AdV); [12]) was “significant”. The “antiviral efficiency (ER %)” value [5] was 75.08** %, the “inhibitory effect (in words)” value [5, 12] was “significant” and the “Lung index (X ± S)” value (parainfluenza virus [6]; [13]) was 1.360 ± 0.052. For the same molecule, the “Lung index Inhibitory rate (%)” value (parainfluenza virus [6]; [13]) was 15.03%, the “Lung index (X ± S)” value (parainfluenza virus [6]; mouse, in vivo, 13 mg/kg/day) was 1.2297 ± 0.071 and the “Lung index Inhibitory rate (%)” value (parainfluenza virus [6]; mouse, in vivo, 13 mg/kg/day) was 19.01%. The “effect on mice viral pneumonia (in words)” value (parainfluenza virus [6]; parainfluenza virus, 3.25 to 13.0 mg/kg/d) was “significant inhibitory effect”, the “hemagglutination titers (in words)” value (parainfluenza virus [6]; parainfluenza virus, 3.25 to 13.0 mg/kg/d, compared to virus control group) was “greatly reduce” and the “antiviral efficiency (ER %)” value (enterovirus EV71) was 84.85** %. The “inhibitory effect (in words)” value (enterovirus EV71; [12]) was “significant”, the “Maximal non-cytotoxic concentration (TC0)” value (Vero cells) was 0.006 g/L and the “Median toxic concentration (TC50)” value (Vero cells) was 550 µg/mL. For the same molecule, the “antiviral efficiency (ER %)” value [7] was 75.27** %, the “inhibitory effect (in words)” value [7, 12] was “significant” and the “antiviral efficiency (ER %)” value [8] was 85.00** %. For the same molecule, the “inhibitory effect (in words)” value [8, 12] was “significant”.
